According to ChEMBL document CHEMBL5537178, “Discovery of TP0628103: A Highly Potent and Selective MMP-7 Inhibitor with Reduced OATP-Mediated Clearance Designed by Shifting Isoelectric Points” (J Med Chem, 2024):
pIC50: −log10 of the molar value.

Columns and labels:
[1] = target: Matrix metalloproteinase-9 (Homo sapiens, UniProt P14780); assay: Inhibition of recombinant human MMP9 assessed as enzyme activity by measuring fluorescence using fluorogenic peptide substrate
[2] = Volume of distribution at steady state in Sprague-Dawley rat at 0.5 mg/kg, iv; type: ADME, organism-based; details: in vivo, read-out: Vdss
[3] = target: T1, CYP3A (Homo sapiens, UniProt P08684+P20815+P24462+Q9HB55); assay: Time dependent inhibition of CYP3A in human liver microsomes using testosterone as substrate at 10 uM by LC-MS/MS analysis relative to control; type: ADME, Microsome; details: probe testosterone, read-out: TDI
[4] = target: T2, CYP2B6 (Homo sapiens, UniProt P20813); assay: Time dependent inhibition of CYP2B6 in human liver microsomes at 10 uM by LC-MS/MS analysis relative to control; type: ADME, Microsome; details: read-out: TDI
T2 sequence (P20813 whole entry): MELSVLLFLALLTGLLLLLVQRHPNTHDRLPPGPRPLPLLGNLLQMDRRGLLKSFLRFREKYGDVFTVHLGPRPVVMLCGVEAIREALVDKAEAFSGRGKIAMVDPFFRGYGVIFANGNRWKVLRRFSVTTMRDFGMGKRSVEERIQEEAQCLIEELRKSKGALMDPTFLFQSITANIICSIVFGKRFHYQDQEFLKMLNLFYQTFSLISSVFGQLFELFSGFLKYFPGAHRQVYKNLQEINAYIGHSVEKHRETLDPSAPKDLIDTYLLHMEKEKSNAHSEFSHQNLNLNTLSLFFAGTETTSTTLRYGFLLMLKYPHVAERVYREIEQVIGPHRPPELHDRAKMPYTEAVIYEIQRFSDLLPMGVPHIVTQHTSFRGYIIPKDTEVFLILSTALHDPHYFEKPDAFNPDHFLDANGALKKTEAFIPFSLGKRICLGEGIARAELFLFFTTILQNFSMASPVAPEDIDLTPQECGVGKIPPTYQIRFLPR

[5] = Chemical stability of the compound in pH 4 aqueous solution assessed as degradation by measuring residual rate incubated for 24 hrs at 65 degC by HPLC analysis; type: physicochemical; details: read-out: Activity
[6] = Volume of distribution at steady state in cynomolgus monkey at 1 mg/kg, iv; type: ADME, organism-based, Macaca fascicularis; details: in vivo, read-out: Vdss
[7] = target: CYP2C9 (Homo sapiens, UniProt P11712); assay: Time dependent inhibition of CYP2C9 in human liver microsomes at 10 uM by LC-MS/MS analysis relative to control; type: ADME, Microsome; details: read-out: TDI
CYP2C9, sequence (P11712 whole entry): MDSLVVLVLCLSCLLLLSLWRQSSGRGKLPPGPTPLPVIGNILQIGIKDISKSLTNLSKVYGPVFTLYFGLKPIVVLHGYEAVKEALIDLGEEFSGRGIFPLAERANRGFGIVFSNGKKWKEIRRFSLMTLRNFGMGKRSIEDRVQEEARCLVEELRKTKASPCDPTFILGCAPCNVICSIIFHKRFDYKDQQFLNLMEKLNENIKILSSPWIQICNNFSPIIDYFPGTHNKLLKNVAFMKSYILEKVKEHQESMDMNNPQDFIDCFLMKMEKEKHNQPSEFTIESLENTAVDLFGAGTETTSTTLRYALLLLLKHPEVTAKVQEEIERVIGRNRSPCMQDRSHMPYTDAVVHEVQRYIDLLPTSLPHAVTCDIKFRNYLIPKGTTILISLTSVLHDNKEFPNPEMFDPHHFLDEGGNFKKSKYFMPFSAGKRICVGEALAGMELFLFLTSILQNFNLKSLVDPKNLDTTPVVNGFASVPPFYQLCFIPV

[8] = target: T3, CYP1A2 (Homo sapiens, UniProt P05177); assay: Inhibition of CYP1A2 in human liver microsomes at 10 uM by LC-MS/MS analysis relative to control; type: ADME, Microsome
T3 sequence (P05177 whole entry): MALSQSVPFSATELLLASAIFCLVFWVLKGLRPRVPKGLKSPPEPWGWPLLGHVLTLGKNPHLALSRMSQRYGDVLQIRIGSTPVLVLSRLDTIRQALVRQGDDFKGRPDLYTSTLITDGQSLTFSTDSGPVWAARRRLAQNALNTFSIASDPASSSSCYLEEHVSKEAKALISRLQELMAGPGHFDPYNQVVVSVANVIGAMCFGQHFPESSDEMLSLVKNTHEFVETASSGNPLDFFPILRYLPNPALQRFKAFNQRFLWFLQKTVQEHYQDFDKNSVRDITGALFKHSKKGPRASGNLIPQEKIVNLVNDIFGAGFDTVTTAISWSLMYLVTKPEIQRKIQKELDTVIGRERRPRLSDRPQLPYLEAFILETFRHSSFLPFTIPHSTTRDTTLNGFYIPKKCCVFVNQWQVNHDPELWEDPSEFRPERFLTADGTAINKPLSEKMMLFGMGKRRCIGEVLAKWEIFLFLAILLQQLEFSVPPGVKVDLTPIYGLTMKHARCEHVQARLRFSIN

[9] = target: T4, CYP2C19 (Homo sapiens, UniProt P33261); assay: Time dependent inhibition of CYP2C19 in human liver microsomes at 10 uM by LC-MS/MS analysis relative to control; type: ADME, Microsome; details: read-out: TDI
T4 sequence (P33261 whole entry): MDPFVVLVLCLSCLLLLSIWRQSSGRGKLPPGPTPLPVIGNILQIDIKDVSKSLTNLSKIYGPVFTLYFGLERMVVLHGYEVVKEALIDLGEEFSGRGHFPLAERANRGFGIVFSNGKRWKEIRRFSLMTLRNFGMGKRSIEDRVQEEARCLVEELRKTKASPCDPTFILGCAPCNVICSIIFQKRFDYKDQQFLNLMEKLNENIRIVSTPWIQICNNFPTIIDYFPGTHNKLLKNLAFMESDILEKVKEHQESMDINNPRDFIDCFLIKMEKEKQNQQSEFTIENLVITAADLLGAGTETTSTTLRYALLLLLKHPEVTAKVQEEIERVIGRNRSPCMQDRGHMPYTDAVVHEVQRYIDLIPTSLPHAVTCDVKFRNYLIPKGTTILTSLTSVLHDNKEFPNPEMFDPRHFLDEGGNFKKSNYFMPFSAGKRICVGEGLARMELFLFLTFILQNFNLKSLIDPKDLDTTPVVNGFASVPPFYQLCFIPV

[10] = target: T4, CYP2C19; assay: Inhibition of CYP2C19 in human liver microsomes at 10 uM by LC-MS/MS analysis relative to control; type: ADME, Microsome
[11] = Fraction unbound in human; type: ADME
[12] = target: Macrophage metalloelastase (Homo sapiens, UniProt P39900); assay: Inhibition of recombinant human MMP12 assessed as enzyme activity by measuring fluorescence using fluorogenic peptide substrate
Macrophage metalloelastase, sequence (P39900 whole entry): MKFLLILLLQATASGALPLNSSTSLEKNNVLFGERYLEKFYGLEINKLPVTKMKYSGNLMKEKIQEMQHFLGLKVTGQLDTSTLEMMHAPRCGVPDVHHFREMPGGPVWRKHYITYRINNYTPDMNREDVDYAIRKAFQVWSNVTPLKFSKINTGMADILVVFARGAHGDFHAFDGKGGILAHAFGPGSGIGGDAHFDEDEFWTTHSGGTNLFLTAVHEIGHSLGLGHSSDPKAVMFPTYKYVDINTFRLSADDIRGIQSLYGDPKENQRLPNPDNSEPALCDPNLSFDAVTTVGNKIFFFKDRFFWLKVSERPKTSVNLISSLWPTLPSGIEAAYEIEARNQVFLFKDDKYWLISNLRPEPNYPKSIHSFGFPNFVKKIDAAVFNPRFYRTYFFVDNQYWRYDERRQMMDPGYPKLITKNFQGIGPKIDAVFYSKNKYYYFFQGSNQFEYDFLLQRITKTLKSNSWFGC

[13] = target: Neutrophil collagenase (Homo sapiens, UniProt P22894); assay: Inhibition of recombinant human MMP8 assessed as enzyme activity by measuring fluorescence using fluorogenic peptide substrate
Neutrophil collagenase, sequence (P22894 whole entry): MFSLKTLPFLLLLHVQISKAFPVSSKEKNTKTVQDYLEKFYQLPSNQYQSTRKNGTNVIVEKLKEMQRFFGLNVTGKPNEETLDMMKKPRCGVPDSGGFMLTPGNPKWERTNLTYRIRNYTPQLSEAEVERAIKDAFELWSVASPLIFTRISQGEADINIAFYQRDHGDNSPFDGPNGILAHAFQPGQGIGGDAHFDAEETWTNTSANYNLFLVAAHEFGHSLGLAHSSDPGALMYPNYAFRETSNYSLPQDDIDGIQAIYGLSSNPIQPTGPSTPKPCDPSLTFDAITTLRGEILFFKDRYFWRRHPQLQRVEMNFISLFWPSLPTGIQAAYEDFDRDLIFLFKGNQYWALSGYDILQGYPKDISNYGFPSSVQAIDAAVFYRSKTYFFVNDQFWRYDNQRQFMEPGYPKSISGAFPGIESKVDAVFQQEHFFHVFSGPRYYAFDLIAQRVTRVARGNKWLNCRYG

[14] = target: T3, CYP1A2; assay: Time dependent inhibition of CYP1A2 in human liver microsomes at 10 uM by LC-MS/MS analysis relative to control; type: ADME, Microsome; details: read-out: TDI
[15] = target: T1, CYP3A; assay: Inhibition of CYP3A in human liver microsomes using midazolam as substrate at 10 uM by LC-MS/MS analysis relative to control; type: ADME, Microsome; details: probe midazolam
[16] = Chemical stability of the compound in pH 7.4 aqueous solution assessed as degradation by measuring residual rate incubated measured after 2 weeks at 65 degC by HPLC analysis; type: physicochemical; details: read-out: Stability
[17] = target: Voltage-gated inwardly rectifying potassium channel KCNH2 (Homo sapiens, UniProt Q12809); assay: Inhibition of hERG at 10 uM; type: toxicity
Voltage-gated inwardly rectifying potassium channel KCNH2, sequence (Q12809 whole entry): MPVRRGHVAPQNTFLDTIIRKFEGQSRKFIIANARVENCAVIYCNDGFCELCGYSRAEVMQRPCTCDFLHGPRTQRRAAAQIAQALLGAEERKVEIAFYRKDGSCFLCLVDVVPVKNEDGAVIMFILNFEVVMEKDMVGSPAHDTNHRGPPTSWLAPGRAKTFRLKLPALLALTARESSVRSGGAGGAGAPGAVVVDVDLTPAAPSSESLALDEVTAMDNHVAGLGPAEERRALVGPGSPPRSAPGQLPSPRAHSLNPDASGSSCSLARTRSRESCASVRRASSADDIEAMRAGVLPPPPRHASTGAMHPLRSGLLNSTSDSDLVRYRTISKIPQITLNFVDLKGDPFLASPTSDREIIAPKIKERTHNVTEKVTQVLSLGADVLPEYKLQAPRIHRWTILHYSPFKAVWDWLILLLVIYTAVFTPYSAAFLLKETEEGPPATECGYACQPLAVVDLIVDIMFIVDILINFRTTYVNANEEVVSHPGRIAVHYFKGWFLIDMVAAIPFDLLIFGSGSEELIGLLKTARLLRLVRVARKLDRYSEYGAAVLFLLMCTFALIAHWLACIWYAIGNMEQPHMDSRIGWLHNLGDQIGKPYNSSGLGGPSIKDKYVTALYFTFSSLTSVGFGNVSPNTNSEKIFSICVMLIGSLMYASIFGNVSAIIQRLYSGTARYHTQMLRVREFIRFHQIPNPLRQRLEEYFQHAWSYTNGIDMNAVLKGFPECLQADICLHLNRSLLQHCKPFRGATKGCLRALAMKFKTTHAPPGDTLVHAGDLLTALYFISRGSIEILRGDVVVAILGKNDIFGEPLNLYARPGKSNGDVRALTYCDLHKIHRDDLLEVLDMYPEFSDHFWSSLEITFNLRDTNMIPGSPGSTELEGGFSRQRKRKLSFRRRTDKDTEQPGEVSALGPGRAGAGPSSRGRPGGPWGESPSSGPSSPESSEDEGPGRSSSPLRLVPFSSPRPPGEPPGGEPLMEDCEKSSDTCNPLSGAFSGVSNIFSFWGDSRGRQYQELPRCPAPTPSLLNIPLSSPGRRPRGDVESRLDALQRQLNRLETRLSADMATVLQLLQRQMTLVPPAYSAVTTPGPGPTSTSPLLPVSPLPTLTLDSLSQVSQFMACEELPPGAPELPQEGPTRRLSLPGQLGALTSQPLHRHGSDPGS

[18] = Chemical stability of the compound in pH 4 aqueous solution assessed as degradation by measuring residual rate incubated measured after 2 weeks at 65 degC by HPLC analysis; type: physicochemical; details: read-out: Stability
[19] = Clearance in cynomolgus monkey at 1 mg/kg, iv; type: ADME, organism-based, Macaca fascicularis; details: in vivo
[20] = target: Stromelysin-1 (Homo sapiens, UniProt P08254); assay: Inhibition of recombinant human MMP3 assessed as enzyme activity by measuring fluorescence using fluorogenic peptide substrate
Stromelysin-1, sequence (P08254 whole entry): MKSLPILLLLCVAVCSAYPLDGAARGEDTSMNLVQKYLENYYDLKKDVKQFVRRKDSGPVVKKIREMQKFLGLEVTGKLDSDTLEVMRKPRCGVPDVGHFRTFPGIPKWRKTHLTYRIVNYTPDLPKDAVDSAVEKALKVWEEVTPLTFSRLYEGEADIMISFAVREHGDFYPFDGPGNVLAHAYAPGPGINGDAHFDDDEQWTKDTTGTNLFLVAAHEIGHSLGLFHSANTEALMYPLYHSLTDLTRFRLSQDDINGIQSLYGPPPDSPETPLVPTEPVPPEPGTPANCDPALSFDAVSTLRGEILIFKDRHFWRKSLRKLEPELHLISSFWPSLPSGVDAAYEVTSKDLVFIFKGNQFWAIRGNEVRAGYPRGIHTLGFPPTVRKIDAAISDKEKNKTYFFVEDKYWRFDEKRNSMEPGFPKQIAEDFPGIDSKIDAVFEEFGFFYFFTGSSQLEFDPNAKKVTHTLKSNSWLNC

[21] = Plasma unbound drug concentration at steady state in UUO surgery-induced renal fibrosis C57BL/6J mouse model at 0.3 mg/kg/day, sc administered with mini osmotic pump measured after 3 days; type: ADME, organism-based; details: in vivo, 72 h, time 3 day
[22] = Clearance in Sprague-Dawley rat at 0.5 mg/kg, iv; type: ADME, organism-based; details: in vivo
[23] = target: T2, CYP2B6; assay: Inhibition of CYP2B6 in human liver microsomes at 10 uM by LC-MS/MS analysis relative to control; type: ADME, Microsome

Matrix metalloproteinase-9, sequence (P14780 whole entry): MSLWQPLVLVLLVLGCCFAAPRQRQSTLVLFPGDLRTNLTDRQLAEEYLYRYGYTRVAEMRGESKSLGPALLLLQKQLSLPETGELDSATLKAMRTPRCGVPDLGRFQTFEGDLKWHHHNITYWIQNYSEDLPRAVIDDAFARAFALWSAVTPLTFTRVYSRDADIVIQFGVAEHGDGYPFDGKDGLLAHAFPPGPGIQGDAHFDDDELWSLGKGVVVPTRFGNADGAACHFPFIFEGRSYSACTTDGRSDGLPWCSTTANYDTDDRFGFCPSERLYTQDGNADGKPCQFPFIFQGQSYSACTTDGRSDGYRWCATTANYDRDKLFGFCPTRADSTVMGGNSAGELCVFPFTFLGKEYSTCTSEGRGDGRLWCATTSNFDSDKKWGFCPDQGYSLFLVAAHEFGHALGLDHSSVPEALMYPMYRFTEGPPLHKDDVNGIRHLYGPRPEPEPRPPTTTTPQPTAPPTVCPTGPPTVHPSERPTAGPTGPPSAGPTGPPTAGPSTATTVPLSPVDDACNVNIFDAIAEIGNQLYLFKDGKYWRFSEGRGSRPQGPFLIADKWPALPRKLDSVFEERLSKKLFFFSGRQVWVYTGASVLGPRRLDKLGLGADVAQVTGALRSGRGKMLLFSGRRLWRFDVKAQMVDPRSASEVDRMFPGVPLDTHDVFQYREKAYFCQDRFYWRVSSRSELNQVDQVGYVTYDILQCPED

In the case of `CC(C)(C)[C@H](NC(=O)[C@H](Cc1ccncc1)NC(=O)CNC(=O)CC[C@H](NS(=O)(=O)c1ccc(Cl)c(C(F)(F)F)c1)C(=O)O)C(=O)Nc1ccc(C(=O)N2CCC(C(=O)N[C@H](CCCCN)C(=O)N3CC[C@H](N)C3)CC2)cc1`, the pIC50 [1] was < 5.00, the Vd [2] was 0.179 L/kg and the inhibition at 10 µM [3] was -13.9%. It also gave an inhibition at 10 µM [4] of -4.8%, a remaining at 24 h [5] of 101% and a Vd [6] of 0.145 L/kg. For the same compound, the inhibition at 10 µM [7] was -11.5%, the inhibition at 10 µM [8] was 3.2% and the inhibition at 10 µM [9] was 4.8%. The inhibition at 10 µM [10] was -4.3%, the fraction unbound [11] was 0.135 and the pIC50 [12] was 6.14. For the same compound, the pIC50 [13] was < 5.00, the inhibition at 10 µM [14] was -5% and the inhibition at 10 µM [15] was 6%. For the same compound, the remaining at 336 h [16] was 99.1%, the “inhibition (INH)” value [17] was “Not Active” and the remaining at 336 h [18] was 98.2%. For the same compound, the clearance [19] was 0.918 mL/min/kg, the pIC50 [20] was < 5.00 and the “Cp(f)” value [21] was 6.56 nM. For the same compound, the clearance [22] was 3.52 mL/min/kg and the inhibition at 10 µM [23] was -6.6%.
